Legend:
[1] = Drug concentration in stomach of BALB/c mouse at 40 mg/kg, iv measured after 4 hrs by UHPLC-MS/MS analysis; assay type: ADME, organism-based; conditions: in vivo
[2] = Drug concentration in brain of BALB/c mouse at 40 mg/kg, iv measured after 4 hrs by UHPLC-MS/MS analysis; assay type: ADME, organism-based; conditions: in vivo
[3] = Drug concentration in spleen of BALB/c mouse at 40 mg/kg, iv measured after 4 hrs by UHPLC-MS/MS analysis; assay type: ADME, organism-based; conditions: in vivo
[4] = Prodrug conversion in liver of BALB/c mouse assessed as SN38 release at 40 mg/kg, iv measured after 4 hrs by UHPLC-MS/MS analysis; assay type: ADME, organism-based; conditions: in vivo
[5] = Prodrug conversion in brain of BALB/c mouse assessed as SN38 release at 20 mg/kg, ip measured after 4 hrs by UHPLC-MS/MS analysis; assay type: ADME, organism-based; conditions: in vivo
[6] = tested on: HT-29; experiment: Cytotoxicity against human HT-29 cells incubated for 48 hrs by SRB assay; assay type: functional, cell-based; conditions: HT-29, 48 h
[7] = Biodistribution in heart of BALB/c mouse at 20 mg/kg, ip measured after 4 hrs by UHPLC-MS/MS analysis; assay type: ADME, organism-based; conditions: in vivo
[8] = Prodrug conversion in stomach of BALB/c mouse assessed as SN38 release at 20 mg/kg, ip measured after 4 hrs by UHPLC-MS/MS analysis; assay type: ADME, organism-based; conditions: in vivo
[9] = Drug concentration in heart of BALB/c mouse at 40 mg/kg, iv measured after 4 hrs by UHPLC-MS/MS analysis; assay type: ADME, organism-based; conditions: in vivo
[10] = Drug concentration in kidney of BALB/c mouse at 40 mg/kg, iv measured after 4 hrs by UHPLC-MS/MS analysis; assay type: ADME, organism-based; conditions: in vivo
[11] = Biodistribution in spleen of BALB/c mouse at 20 mg/kg, ip measured after 4 hrs by UHPLC-MS/MS analysis; assay type: ADME, organism-based; conditions: in vivo
[12] = Drug concentration in tumor of BALB/c mouse at 40 mg/kg, iv measured after 4 hrs by UHPLC-MS/MS analysis; assay type: ADME, organism-based, Neoplasm; conditions: in vivo
[13] = Prodrug conversion in liver of BALB/c mouse assessed as SN38 release at 20 mg/kg, ip measured after 4 hrs by UHPLC-MS/MS analysis; assay type: ADME, organism-based; conditions: in vivo
[14] = Toxicity in AOM/DSS-induced orthotopic CRC BALB/c mouse model assessed as body weight loss at 20 mg/kg, ip administered every other day for 2 weeks; assay type: organism-based; conditions: in vivo, 336 h
[15] = Biodistribution in brain of BALB/c mouse at 20 mg/kg, ip measured after 4 hrs by UHPLC-MS/MS analysis; assay type: ADME, organism-based; conditions: in vivo
[16] = Prodrug conversion in spleen of BALB/c mouse assessed as SN38 release at 20 mg/kg, ip measured after 4 hrs by UHPLC-MS/MS analysis; assay type: ADME, organism-based; conditions: in vivo
[17] = Drug concentration in intestine of BALB/c mouse at 40 mg/kg, iv measured after 4 hrs by UHPLC-MS/MS analysis; assay type: ADME, organism-based; conditions: in vivo
[18] = Prodrug conversion in tumor of BALB/c mouse assessed as SN38 release at 20 mg/kg, ip measured after 4 hrs by UHPLC-MS/MS analysis; assay type: ADME, organism-based, Neoplasm; conditions: in vivo
[19] = Biodistribution in liver of BALB/c mouse at 20 mg/kg, ip measured after 4 hrs by UHPLC-MS/MS analysis; assay type: ADME, organism-based; conditions: in vivo
[20] = Prodrug conversion in tumor of BALB/c mouse assessed as SN38 release at 40 mg/kg, iv measured after 4 hrs by UHPLC-MS/MS analysis; assay type: ADME, organism-based, Neoplasm; conditions: in vivo
[21] = Toxicity in AOM/DSS-induced orthotopic CRC BALB/c mouse model assessed as body weight loss at 40 mg/kg, iv administered once every 2 days for 2 weeks; assay type: organism-based; conditions: in vivo, 336 h
[22] = Biodistribution in gastrointestinal tract of BALB/c mouse at 20 mg/kg, ip measured after 4 hrs by UHPLC-MS/MS analysis; assay type: ADME, organism-based; conditions: in vivo
[23] = Biodistribution in colorectal tumor site of BALB/c mouse at 20 mg/kg, ip measured after 4 hrs by UHPLC-MS/MS analysis; assay type: ADME, organism-based, Neoplasm; conditions: in vivo
[24] = Prodrug conversion in lung of BALB/c mouse assessed as SN38 release at 20 mg/kg, ip measured after 4 hrs by UHPLC-MS/MS analysis; assay type: ADME, organism-based; conditions: in vivo
[25] = Prodrug conversion in intestine of BALB/c mouse assessed as SN38 release at 20 mg/kg, ip measured after 4 hrs by UHPLC-MS/MS analysis; assay type: ADME, organism-based; conditions: in vivo
[26] = tested on: COLO 205; experiment: Cytotoxicity against human COLO 205 cells incubated for 48 hrs by SRB assay; assay type: functional, cell-based; conditions: COLO 205, 48 h
[27] = Prodrug conversion in kidney of BALB/c mouse assessed as SN38 release at 20 mg/kg, ip measured after 4 hrs by UHPLC-MS/MS analysis; assay type: ADME, organism-based; conditions: in vivo
[28] = tested on: HCT-116; experiment: Cytotoxicity against human HCT-116 cells incubated for 48 hrs by SRB assay; assay type: functional, cell-based; conditions: HCT-116, 48 h
[29] = Prodrug conversion in heart of BALB/c mouse assessed as SN38 release at 20 mg/kg, ip measured after 4 hrs by UHPLC-MS/MS analysis; assay type: ADME, organism-based; conditions: in vivo
[30] = Drug concentration in liver of BALB/c mouse at 40 mg/kg, iv measured after 4 hrs by UHPLC-MS/MS analysis; assay type: ADME, organism-based; conditions: in vivo

- Ct [1]: Active
- Ct [2]: Active
- Ct [3]: Active
- Drug metabolism [4]: Metabolite_Detected
- Drug metabolism [5]: Metabolite_Detected
- Drug uptake [7]: Active
- Drug metabolism [8]: Metabolite_Detected
- Ct [9]: Active
- Ct [10]: Active
- Drug uptake [11]: Active
- Ct [12]: Active
- Drug metabolism [13]: Metabolite_Detected
- Drug uptake [15]: Active
- Drug metabolism [16]: Metabolite_Detected
- Ct [17]: Active
- Drug metabolism [18]: Metabolite_Detected
- Drug uptake [19]: Active
- Drug metabolism [20]: Metabolite_Detected
- Drug uptake [22]: Active
- Drug uptake [23]: Active
- Drug metabolism [24]: Metabolite_Detected
- Drug metabolism [25]: Metabolite_Detected
- Drug metabolism [27]: Metabolite_Detected
- Drug metabolism [29]: Metabolite_Detected
- Ct [30]: Active
Compound: CCc1c2c(nc3ccc(OC(=O)N4CCC(N5CCCCC5)CC4)cc13)-c1cc3c(c(=O)n1C2)COC(=O)[C@]3(O)CC [IRINOTECAN]
- IC50 [6]: 8.51 µM
- Activity [14]: Non-Toxic
- Activity [21]: Non-Toxic
- IC50 [26]: 9.9 µM
- IC50 [28]: 3.69 µM

Reference: ChEMBL document CHEMBL5331135, “Design, Synthesis, and Evaluation of Glucose Transporter Inhibitor-SN38 Conjugates for Targeting Colorectal Cancer” (J Med Chem, 2023)
